Inhibition data for 15 compounds are collected here from patent US7812025B2, “Brain/neuronal cell-protecting agent and therapeutic agent for sleep disorder” (Takeda Pharmaceutical Company Limited, priority 2005, dated 2010).

For the assay, the target named is T1, Human FAAH (Homo sapiens, UniProt O00519).
T1 construct: made in house; 10000 g pellet suspended in M-PER
T1 sequence (O00519 1-579): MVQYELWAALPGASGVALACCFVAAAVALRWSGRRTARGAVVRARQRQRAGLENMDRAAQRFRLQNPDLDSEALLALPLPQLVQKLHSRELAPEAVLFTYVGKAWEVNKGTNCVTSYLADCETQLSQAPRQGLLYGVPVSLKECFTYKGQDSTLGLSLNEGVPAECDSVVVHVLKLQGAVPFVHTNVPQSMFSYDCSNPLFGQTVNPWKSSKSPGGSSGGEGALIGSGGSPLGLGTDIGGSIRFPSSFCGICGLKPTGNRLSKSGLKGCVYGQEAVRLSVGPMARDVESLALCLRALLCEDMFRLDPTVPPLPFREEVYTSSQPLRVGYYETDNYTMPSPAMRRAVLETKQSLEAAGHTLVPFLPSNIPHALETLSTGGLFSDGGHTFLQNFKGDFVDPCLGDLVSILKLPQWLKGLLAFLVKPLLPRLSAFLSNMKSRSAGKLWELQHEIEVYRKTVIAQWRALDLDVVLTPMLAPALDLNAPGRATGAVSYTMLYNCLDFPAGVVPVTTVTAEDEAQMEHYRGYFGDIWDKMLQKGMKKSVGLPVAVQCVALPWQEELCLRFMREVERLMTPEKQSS
Briefly: Measurement of FAAH inhibitory activity (enzyme fraction from CHO-K1/human FAAH, substrate anandamide [ethanolamine 1-3H]). In kind it is biochemical. Conditions: 1 μM test compound; 25 nM anandamide [ethanolamine 1-3H]; 60 ng enzyme fraction; 37° C. for 30 minutes; pH 9.0; read-out: Human FAAH Inhibition Rate at 1 μM (%). As to the method: Measurement of FAAH Inhibitory Activity
(1) Preparation of Enzyme Fraction
The FAAH gene was cloned by PCR. That is, a human brain library was used as a cDNA library, 5′-[…]-3′ [SEQ ID NO:1] and 5′-[…]-3′ [SEQ ID NO:2] were used as a primer set, and KOD DNA polymerase (Toyobo Co., Ltd.) was used as a DNA polymerase. One cycle of the reaction comprises 95° C. for 30 sec, 55° C. for 30 sec and 72° C. for 2 min, and 45 cycles of the reaction was carried out to obtain an amplified fragment. The amplified fragment was cleaved with restriction enzymes EcoRI and SalI, and then was inserted into a pMSRα vector which had been cleaved with the same restriction enzymes EcoRI and SalI to obtain a pMSRα-human FAAH. A cell line CHO-K1 and the above-obtained plasmid were subjected to a method known per se to prepare the cell line CHO-K1/human FAAH in which human FAAH was stably expressed. The CHO-K1/human FAAH was cultured in a CO2 incubator at 37° C., using a medium (Ham's F-12 medium supplemented with final concentration 10% of fetal bovine serum (FBS) and final concentration 800 μg/ml of G418), and then the cells were harvested. After washing with PBS, the cells were suspended in a buffer (10 mM Tris, 1 mM EDTA and 10 mM MgCl2, all at final concentrations) and disrupted with a Polytron homogenizer. After centrifugation at 900 g, the supernatant was recovered and further centrifuged at 10000 g. A pellet obtained therefrom was suspended in M-PER (Catalog No. 78501; PIERCE) to give an enzyme fraction.
Using a white walled 96-well plate (Coster Corp.), the test compound at various concentrations, 60 ng of the enzyme fraction and the substrate anandamide [ethanolamine 1-^3H] (final concentration 25 nM) were reacted in 50 μl of a reaction buffer (125 mM Tris-HCl (pH 9.0), 1 mM EDTA, 0.4 mM HEPES, 0.2% glycerol and 0.02% Triton X-100, all at final concentrations) at 37° C. for 30 minutes. The reaction mixture was transferred to a 96-well MultiScreen-HA filter plate (Millipore Corp.) and then was left to stand overnight at room temperature in order to allow the unreacted substrate to be adsorbed on the filter. The plate was washed with PBS using a MultiScreen Vacuum Manifold (Millipore Corp.) and dried. To each well, 50 μl of liquid scintillation cocktail was added and stirred, and then counting was performed with a TopCount (Perkin-Elmer Corp.). The count of a sample containing a solvent instead of the test compound was taken as 0%, and the count at zero time was taken as 100%, to calculate the inhibitory activity of the compound.
Usually inhibition stands for the change of the read-out against control, counted positive when it falls. Take `O=C(Nc1cccnn1)N1CCN(c2cc(-c3ccccc3)ccn2)CC1` [Example 6, 4-(4-Phenylpyridin-2-yl)-N-pyridazin-3-ylpiperazine-1-carboxamide]: the inhibition at 1 µM stood at 91%. With `O=C(Nc1cccnn1)N1CCN(c2cccc(-c3ccccc3)c2)CC1` [Example 9, 4-Biphenyl-3-yl-N-pyridazin-3-ylpiperazine-1-carboxamide] the figure was 105%. With `Cc1noc(NC(=O)N2CCN(c3cccc(-c4ccccc4)c3)CC2)c1C` [Example 2, 4-Biphenyl-3-yl-N-(3,4-dimethylisoxazol-5-yl)piperazine-1-carboxamide] the figure was 104%; with `O=C(Nc1cccnc1)N1CCN(c2cccc(-c3ccccc3)c2)CC1` [Example 1, 4-Biphenyl-3-yl-N-pyridin-3-ylpiperazine-1-carboxamide], 103%; with `O=C(Nc1cccnc1)N1CCN(c2ccc(-c3ccccc3)cn2)CC1` [Example 8, 4-(5-Phenylpyridin-2-yl)-N-pyridin-3-ylpiperazine-1-carboxamide], 98%.

For `Cc1noc(NC(=O)N2CCN(c3ccc(-c4ccccc4)cn3)CC2)c1C` [Example 7, N-(3,4-Dimethylisoxazol-5-yl)-4-(5-phenylpyridin-2-yl)piperazine-1-carboxamide], the inhibition at 1 µM turned out to be 102%. `Cc1noc(NC(=O)N2CCN(c3cccc(-c4ccsc4)c3)CC2)c1C` [Example 11, N-(3,4-Dimethylisoxazol-5-yl)-4-[3-(3-thienyl)phenyl]piperazine-1-carboxamide]: the inhibition at 1 µM was determined as 100%. For `CC(=O)Nc1ccc(NC(=O)N2CCN(c3cccc(-c4ccsc4)c3)CC2)cc1` [Example 10, N-[4-(Acetylamino)phenyl]-4-[3-(3-thienyl)phenyl]piperazine-1-carboxamide] the value was 108%. As to `O=C(Nc1cccnc1)N1CCN(c2cccc(-c3ccsc3)c2)CC1` [Example 12, N-Pyridin-3-yl-4-[3-(3-thienyl)phenyl]piperazine-1-carboxamide], the inhibition at 1 µM was 104%.

`O=C(Nc1cccnc1)N1CCN(c2cccc(-c3ccoc3)c2)CC1` [Example 13, 4-[3-(3-Furyl)phenyl]-N-pyridin-3-ylpiperazine-1-carboxamide]: the inhibition at 1 µM worked out at 104%. With `CC(=O)Nc1ccc(NC(=O)N2CCN(c3cccc(-c4ccccc4)c3)CC2)cn1` [Example 3, N-[6-(Acetylamino)pyridin-3-yl]-4-biphenyl-3-ylpiperazine-1-carboxamide] the figure was 101%. For `O=C(Nc1cccnc1)N1CCN(c2cc(-c3ccccc3)ccn2)CC1` [Example 4, 4-(4-Phenylpyridin-2-yl)-N-pyridin-3-ylpiperazine-1-carboxamide], the inhibition at 1 µM stood at 74%. On to `Cc1noc(NC(=O)N2CCN(c3ccc(-c4ccccc4)cc3)CC2)c1C` [Example 15, 4-Biphenyl-4-yl-N-(3,4-dimethylisoxazol-5-yl)piperazine-1-carboxamide], for which the inhibition at 1 µM is 102%. For `O=C(Nc1cccnc1)N1CCN(c2ccc(-c3ccccc3)cc2)CC1` [Example 14, 4-Biphenyl-4-yl-N-pyridin-3-ylpiperazine-1-carboxamide] the value was 101%.

In the case of `Cc1noc(NC(=O)N2CCN(c3cc(-c4ccccc4)ccn3)CC2)c1C` [Example 5, N-(3,4-Dimethylisoxazol-5-yl)-4-(4-phenylpyridin-2-yl)piperazine-1-carboxamide], the inhibition at 1 µM was 94%.
